The results in this text go back to ChEMBL document CHEMBL3407340, “Synthesis, radiolabeling and evaluation of novel 4-oxo-quinoline derivatives as PET tracers for imaging cannabinoid type 2 receptor” (Eur J Med Chem, 2015).

Experiment [1] addresses Cannabinoid receptor 2 (Rattus norvegicus) (UniProt Q9QZN9). Nature of the experiment: Binding affinity to CB2 receptor in rat spleen at 0.4 nM after 15 mins by autoradiography in presence of GW405833. Conditions: tested as the 11C-labelled form. It counts as tissue-based.
For experiment [2], the target named is Cannabinoid receptor 2 (Mus musculus) (UniProt P47936). The experiment in a line: Binding affinity to CB2 receptor in mouse spleen at 0.4 nM after 15 mins by autoradiography in presence of GW405833. Conditions: tested as the 11C-labelled form.
For a further experiment, the target named is Cannabinoid receptor 1 (Homo sapiens, UniProt P21554). Nature of the experiment: Displacement of [3H]-CP-55940 from human CB1 receptor transfected in CHOK1 cells after 90 mins by liquid scintillation counting analysis. It counts as cell-based, CHO-K1.

Calls of active or inactive are those of the source. The rule behind the calls is not given here.

Cannabinoid receptor 1, sequence (P21554 whole entry): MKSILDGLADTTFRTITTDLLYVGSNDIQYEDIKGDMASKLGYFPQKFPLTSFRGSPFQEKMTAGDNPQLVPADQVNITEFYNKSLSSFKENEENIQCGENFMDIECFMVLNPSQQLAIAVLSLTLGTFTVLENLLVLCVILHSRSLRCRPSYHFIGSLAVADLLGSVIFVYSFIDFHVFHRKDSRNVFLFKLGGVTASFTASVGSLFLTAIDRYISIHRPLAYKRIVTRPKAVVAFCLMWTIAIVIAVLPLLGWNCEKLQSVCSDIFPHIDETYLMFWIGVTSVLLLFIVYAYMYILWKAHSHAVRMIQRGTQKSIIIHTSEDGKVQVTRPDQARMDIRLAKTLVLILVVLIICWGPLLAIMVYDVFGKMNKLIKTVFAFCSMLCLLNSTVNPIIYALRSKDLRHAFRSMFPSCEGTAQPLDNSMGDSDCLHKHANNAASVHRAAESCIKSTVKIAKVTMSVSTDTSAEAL
Cannabinoid receptor 2 (Rattus norvegicus), sequence (Q9QZN9 whole entry): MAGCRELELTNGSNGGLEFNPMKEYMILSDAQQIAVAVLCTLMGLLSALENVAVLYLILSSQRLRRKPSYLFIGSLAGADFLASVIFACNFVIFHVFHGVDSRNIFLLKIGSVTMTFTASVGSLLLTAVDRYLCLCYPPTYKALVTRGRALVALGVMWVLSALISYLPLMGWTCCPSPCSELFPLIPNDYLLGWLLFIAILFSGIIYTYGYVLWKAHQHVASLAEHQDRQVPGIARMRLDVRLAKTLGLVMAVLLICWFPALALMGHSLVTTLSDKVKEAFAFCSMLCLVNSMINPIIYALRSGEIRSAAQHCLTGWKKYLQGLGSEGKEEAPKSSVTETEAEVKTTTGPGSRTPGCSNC
Cannabinoid receptor 2 (Mus musculus), sequence (P47936 whole entry): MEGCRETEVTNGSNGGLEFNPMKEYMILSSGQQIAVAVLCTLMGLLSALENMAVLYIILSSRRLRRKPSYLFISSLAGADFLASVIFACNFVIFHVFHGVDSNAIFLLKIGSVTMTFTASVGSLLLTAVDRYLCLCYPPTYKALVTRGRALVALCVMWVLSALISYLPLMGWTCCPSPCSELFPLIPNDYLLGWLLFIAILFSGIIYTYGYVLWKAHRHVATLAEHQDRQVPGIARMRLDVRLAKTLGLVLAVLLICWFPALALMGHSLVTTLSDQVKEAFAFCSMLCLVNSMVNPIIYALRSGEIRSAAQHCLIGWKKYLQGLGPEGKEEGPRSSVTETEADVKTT

As to `CCOCCn1cc(C(=O)NC23CC4CC(CC(C4)C2)C3)c(=O)c2cccc(OC)c21`, the result in experiment [1] and in experiment [2] was inactive. Also, the Ki at Cannabinoid receptor 1 is greater than 10 µM.
Take `CCCCn1cc(C(=O)NC(C)(C)C)c(=O)c2cccc(OC)c21`: the Ki on Cannabinoid receptor 1 was greater than 10 µM.
